Results taken from patent US20100041700A1, “Substituted 1-(Azolin-2-yl)-Amino-1,2-Heterocyclyl-Ethane Compounds For Combating Pests” (BASF SE, priority 2006, published 2010).

Tests used:
[1] = test system: Cowpea Aphid (Aphis craccivora); test: Cowpea aphid (Aphis craccivora) spray test on potted cowpea plants; assay type: in vivo; conditions: in comparison with untreated controls, population reduction recorded after 24, 72 and 120 hours, read-out: mortality against cowpea aphid
Description: B.1. Cowpea Aphid (Aphis craccivora)
The active compounds were formulated in 50:50 acetone:water. Potted cowpea plants colonized with 100-150 aphids of various stages were sprayed after the pest population has been recorded. Population reduction was recorded after 24, 72, and 120 hours.

[2] = test system: Green Peach Aphid (Myzus persicae); test: Green peach aphid (Myzus persicae) leaf dip test on pepper plants; assay type: in vivo; conditions: foliar, 120 h, in comparison with untreated controls, determined after 5 days, read-out: mortality against green-peach aphid
Description: B.2. Green Peach Aphid (Myzus persicae)
Pepper plants in the 2nd leaf-pair stage (variety ‘California Wonder’) were infested with approximately 40 laboratory-reared aphids by placing infested leaf sections on top of the test plants. The leaf sections were removed after 24 hours. The leaves of the intact plants were dipped into gradient solutions of the test compound. Aphid mortality on the treated plants, relative to mortality on check plants, was determined after 5 days.

With `Cc1ccsc1C(Cc1ccncc1)NC1=NCCS1` (stereo not drawn) [C.I.9] as the compound, how does the mortality at 300 ppm [1] read?
The mortality at 300 ppm was greater than 80%.

With `Brc1ccsc1C(Cc1ccncc1)NC1=NCCS1` (stereo not drawn) [C.I.10] as the compound, how does the mortality at 300 ppm [2] read?
The mortality at 300 ppm was greater than 80%.

Which mortality at 300 ppm [1] does the source give for `c1ccc(CC(NC2=NCCS2)c2cccs2)nc1` (stereo not drawn) [C.I.12] here?
The mortality at 300 ppm was greater than 80%.
